Reference: patent US20240317714A1, “3-[(1H-PYRAZOL-R-YL)OXY]PYRAZIN-2-AMINE COMPOUNDS AS HPK1 INHIBITOR AND USE THEREOF” (BeiGene, Ltd., priority 2020, published 2024)

Columns and labels:
[1] = target: HPK1 kinase (aal-346. Life Technologies) (Homo sapiens (Human), UniProt Q92918); experiment: HPK Kinase Activity Assay at 1 mM ATP (TR-FRET); format: biochemical; details: HPK1 kinase 40 nM, 0.5 μM STK1 substrate, read-out: Enzymatic activity IC50
[2] = test system: pSLP76(S376) level in Jurkat cell line; experiment: Cellular pSLP76(S376) HTRF Assay; format: cell-based; details: Jurkat cells, 2 h compound treatment, stimulated with 0.05 μg/mL anti-human CD3 (OKT3) for 30 min

HPK1 kinase (aal-346. Life Technologies), sequence (Q92918 1-346): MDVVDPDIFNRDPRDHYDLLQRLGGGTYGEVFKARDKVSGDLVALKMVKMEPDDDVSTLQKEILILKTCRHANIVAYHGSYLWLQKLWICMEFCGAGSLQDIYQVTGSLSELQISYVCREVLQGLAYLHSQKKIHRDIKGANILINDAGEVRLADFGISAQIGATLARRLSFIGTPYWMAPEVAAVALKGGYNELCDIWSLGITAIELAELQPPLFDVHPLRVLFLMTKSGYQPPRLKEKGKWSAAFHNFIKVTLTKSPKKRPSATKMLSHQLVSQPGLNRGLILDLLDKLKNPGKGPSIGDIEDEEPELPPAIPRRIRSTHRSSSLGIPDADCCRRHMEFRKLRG

| IC50 [1] | IC50 ([2]; Homo sapiens, Jurkat) | Compound | IC50 [2] |
| --- | --- | --- | --- |
| 0.014 µM | 0.034 µM | CNS(=O)(=O)c1cc(C)cc(-c2cnc(N)c(Oc3cnn(C4CCN(C)CC4)c3)n2)c1 [Example A2, 3-(5-amino-6-((1-(1-methylpiperidin-4-yl)-1H-pyrazol-4-yl)oxy)pyrazin-2-yl)-N,5-dimethylbenzenesulfonamide] | – |
| 0.11 µM | 0.15 µM | CNC(=O)c1c(C)cc(-c2cnc(N)c(Oc3cnn(C4CCN(C)CC4)c3)n2)cc1C [Example A3, 4-(5-amino-6-(1-(1-methylpiperidin-4-yl)-1H-pyrazol-4-yloxy)pyrazin-2-yl)-N,2,6-trimethylbenzamide] | – |
| 0.044 µM | 0.035 µM | Cc1cc(-c2cnc(N)c(Oc3cnn(C4CCN(C)CC4)c3)n2)cc(S(N)(=O)=O)c1 [Example A6, 3-(5-amino-6-((1-(1-methylpiperidin-4-yl)-1H-pyrazol-4-yl)oxy)pyrazin-2-yl)-5-methylbenzenesulfonamide] | – |
| 0.02 µM | 0.062 µM | CNS(=O)(=O)c1cc(OC)cc(-c2cnc(N)c(Oc3cnn(C4CCN(C)CC4)c3)n2)c1 [Example A7, 3-(5-amino-6-((1-(1-methylpiperidin-4-yl)-1H-pyrazol-4-yl)oxy)pyrazin-2-yl)-5-methoxy-N-methylbenzenesulfonamide] | – |
| 0.044 µM | 0.117 µM | Cc1cc(-c2cnc(N)c(Oc3cnn(C4CCN(C)CC4)c3)n2)cc(S(=O)(=O)NCCC#N)c1 [Example A10, 3-(5-amino-6-((1-(1-methylpiperidin-4-yl)-1H-pyrazol-4-yl)oxy)pyrazin-2-yl)-N-(2-cyanoethyl)-5-methylbenzenesulfonamide] | – |
| 0.009 µM | 0.054 µM | Cc1cc(-c2cnc(N)c(Oc3cnn(C4CCN(C)CC4)c3)n2)cc(C2(NS(C)(=O)=O)CC2)c1 [Example A11, N-(1-(3-(5-amino-6-((1-(1-methylpiperidin-4-yl)-1H-pyrazol-4-yl)oxy)pyrazin-2-yl)-5-methylphenyl)cyclopropyl)methanesulfonamide] | – |
| 0.127 µM | 0.119 µM | Cc1cc(CCNS(C)(=O)=O)cc(-c2cnc(N)c(Oc3cnn(C4CCN(C)CC4)c3)n2)c1 [Example A12, N-(3-(5-amino-6-((1-(1-methylpiperidin-4-yl)-1H-pyrazol-4-yl)oxy)pyrazin-2-yl)-5-methylphenethyl)methanesulfonamide] | – |
| 0.083 µM | 0.157 µM | CCNS(=O)(=O)c1cc(C)cc(-c2cnc(N)c(Oc3cnn(C4CCN(C)CC4)c3)n2)c1 [Example A15, 3-(5-amino-6-((1-(1-methylpiperidin-4-yl)-1H-pyrazol-4-yl)oxy)pyrazin-2-yl)-N-ethyl-5-methylbenzenesulfonamide] | – |
| 0.104 µM | 0.188 µM | CONC(=O)c1c(C)cc(-c2cnc(N)c(Oc3cnn(C4CCN(C)CC4)c3)n2)cc1C [Example A21, 4-(5-amino-6-((1-(1-methylpiperidin-4-yl)-1H-pyrazol-4-yl)oxy)pyrazin-2-yl)-N-methoxy-2,6-dimethylbenzamide] | – |
| 0.104 µM | 0.175 µM | CNS(=O)(=O)c1cc(C)cc(-c2cnc(N)c(Oc3cnn(C4CCN(C5CC5)CC4)c3)n2)c1 [Example A24, 3-(5-amino-6-((1-(1-cyclopropylpiperidin-4-yl)-1H-pyrazol-4-yl)oxy)pyrazin-2-yl)-N,5-dimethylbenzenesulfonamide] | – |
| 0.253 µM | – | Cc1cc(-c2cnc(N)c(Oc3cnn(C4CCN(C)CC4)c3)n2)cc([C@H]2CCC(=O)N2)c1 [Example A61A, (R)-5-(3-(5-amino-6-((1-(1-methylpiperidin-4-yl)-1H-pyrazol-4-yl)oxy)pyrazin-2-yl)-5-methylphenyl)pyrrolidin-2-one] | – |

The next lines start with the compound.

| Compound | IC50 [1] | IC50 ([2]; Homo sapiens, Jurkat) | IC50 [2] |
| --- | --- | --- | --- |
| Cc1cc(-c2cnc(N)c(Oc3cnn(C4CCN(C)CC4)c3)n2)cc([C@@]2(O)CCOC2)c1 (single isomer, unassigned) [Example A74A] | 0.046 µM | – | 0.085 µM |
| C[C@@H]1COCCN1c1cc(-c2cnc(N)c(Oc3cnn(C4CCN(C)CC4)c3)n2)cc(C2(O)CCCOC2)c1 (single isomer, unassigned) [Example A90A] | 0.082 µM | – | – |
| C[C@@H]1COCCN1c1cc(-c2cnc(N)c(Oc3cnn(C4CCN(C)CC4)c3)n2)cc(C2(O)CCCOC2)c1 (single isomer, unassigned) [Example A90B] | 0.0071 µM | 0.1 µM | – |
| CC1OCCC1(O)c1cc(-c2cnc(N)c(Oc3cnn(C4CCN(C)CC4)c3)n2)cc(N2CCOC[C@H]2C)c1 (single isomer, unassigned) [Example A95A] | 0.044 µM | 0.124 µM | – |
| CC1OCCC1(O)c1cc(-c2cnc(N)c(Oc3cnn(C4CCN(C)CC4)c3)n2)cc(N2CCOC[C@H]2C)c1 (single isomer, unassigned) [Example A95B] | 0.0045 µM | – | – |
| Cc1cc(-c2cnc(N)c(Oc3cnn(C4CCN(C)CC4)c3)n2)cc(C)c1C(=O)NCCN(C)C [Example A1, 4-(5-amino-6-((1-(1-methylpiperidin-4-yl)-1H-pyrazol-4-yl)oxy)pyrazin-2-yl)-N-(2-(dimethylamino)ethyl)-2,6-dimethylbenzamide] | 0.047 µM | 0.093 µM | – |
| Cc1cc(-c2cnc(N)c(Oc3cnn(C4CCN(C)CC4)c3)n2)cc(C)c1C(=O)NCCN1CCCC1 [Example A4, 4-(5-amino-6-((1-(1-methylpiperidin-4-yl)-1H-pyrazol-4-yl)oxy)pyrazin-2-yl)-2,6-dimethyl-N-(2-(pyrrolidin-1-yl)ethyl)benzamide] | 0.025 µM | 0.091 µM | – |
| Cc1cc(-c2cnc(N)c(Oc3cnn(C4CCN(C)CC4)c3)n2)cc(C)c1C(=O)NCCN1CCCCC1 [Example A5, 4-(5-amino-6-(1-(1-methylpiperidin-4-yl)-1H-pyrazol-4-yloxy)pyrazin-2-yl)-2,6-dimethyl-N-(2-(piperidin-1-yl)ethyl)benzamide] | 0.035 µM | 0.07 µM | – |
| CNS(=O)(=O)c1cc(-c2cnc(N)c(Oc3cnn(C4CCN(C)CC4)c3)n2)cc(C)c1C [Example A8, 5-(5-amino-6-((1-(1-methylpiperidin-4-yl)-1H-pyrazol-4-yl)oxy)pyrazin-2-yl)-N,2,3-trimethylbenzemesulfonamide] | 0.008 µM | 0.03 µM | – |
| Cc1cc(-c2cnc(N)c(Oc3cnn(C4CCN(C)CC4)c3)n2)cc(S(=O)(=O)NCCN2CCCCC2)c1 [Example A9, 3-(5-amino-6-((1-(1-methylpiperidin-4-yl)-1H-pyrazol-4-yl)oxy)pyrazin-2-yl)-5-methyl-N-(2-(piperidin-1-yl)ethyl)benzenesulfonamide] | 0.046 µM | 0.099 µM | – |
| CNS(=O)(=O)c1cc(C)cc(-c2cnc(N)c(Oc3cnn(C4CCNCC4)c3)n2)c1 [Example A13, 3-(5-amino-6-((1-(piperidin-4-yl)-1H-pyrazol-4-yl)oxy)pyrazin-2-yl)-N,5-dimethylbenzenesulfonamide] | 0.139 µM | 0.12 µM | – |
| CNS(=O)(=O)c1cc(C)cc(-c2cnc(N)c(Oc3cnn([C@@H]4C[C@H]5CC[C@@H](C4)N5C)c3)n2)c1 [Example A14, 3-(5-amino-6-((1-((1R,3s,5S)-8-methyl-8-azabicyclo[3.2.1]octan-3-yl)-1H-pyrazol-4-yl)oxy)pyrazin-2-yl)-N,5-dimethylbenzenesulfonamide] | 0.045 µM | 0.059 µM | – |
| CNS(=O)(=O)c1cc(OC(C)C)cc(-c2cnc(N)c(Oc3cnn(C4CCN(C)CC4)c3)n2)c1 [Example A16, 3-(5-amino-6-((1-(1-methylpiperidin-4-yl)-1H-pyrazol-4-yl)oxy)pyrazin-2-yl)-5-isopropoxy-N-methylbenzenesulfonamide; formic acid] | 0.018 µM | 0.08 µM | – |
| Cc1cc(-c2cnc(N)c(Oc3cnn(C4CCN(C)CC4)c3)n2)cc(C(=O)NCCN(C)C)c1C [Example A17, 5-(5-amino-6-((1-(1-methylpiperidin-4-yl)-1H-pyrazol-4-yl)oxy)pyrazin-2-yl)-N-(2-(dimethylamino)ethyl)-2,3-dimethylbenzamide] | 0.059 µM | 0.194 µM | – |
| CNS(=O)(=O)c1cc(-c2cnc(N)c(Oc3cnn(C4CCN(C)CC4)c3)n2)cc(F)c1C [Example A18, 5-(5-amino-6-((1-(1-methylpiperidin-4-yl)-1H-pyrazol-4-yl)oxy)pyrazin-2-yl)-3-fluoro-N,2-dimethylbenzenesulfonamide] | 0.1 µM | 0.047 µM | – |
| Cc1cc(-c2cnc(N)c(Oc3cnn(C4CCN(C)CC4)c3)n2)cc(C)c1CNS(C)(=O)=O [Example A19, N-(4-(5-amino-6-((1-(1-methylpiperidin-4-yl)-1H-pyrazol-4-yl)oxy)pyrazin-2-yl)-2,6-dimethylbenzyl)methanesulfonamide] | 0.044 µM | 0.046 µM | – |
| Cc1cc(-c2cnc(N)c(Oc3cnn(C4CCN(C)CC4)c3)n2)cc(C2(NS(=O)(=O)c3ccccc3)CC2)c1 [Example A20, N-(1-(3-(5-amino-6-((1-(1-methylpiperidin-4-yl)-1H-pyrazol-4-yl)oxy)pyrazin-2-yl)-5-methylphenyl)cyclopropyl)benzenesulfonamide] | 0.07 µM | 0.097 µM | – |
| CNc1cc(-c2cnc(N)c(Oc3cnn(C4CCN(C)CC4)c3)n2)cc(S(=O)(=O)NC)c1 [Example A22, 3-(5-amino-6-((1-(1-methylpiperidin-4-yl)-1H-pyrazol-4-yl)oxy)pyrazin-2-yl)-N-methyl-5-(methylamino)benzenesulfonamide] | 0.014 µM | 0.038 µM | – |
| CNS(=O)(=O)c1cc(-c2cnc(N)c(Oc3cnn(C4CCN(C)CC4)c3)n2)cc(N2CCCC2)c1 [Example A23, 3-(5-amino-6-((1-(1-methylpiperidin-4-yl)-1H-pyrazol-4-yl)oxy)pyrazin-2-yl)-N-methyl-5-(pyrrolidin-1-yl)benzenesulfonamide] | 0.006 µM | 0.035 µM | – |
